In US20180071298A1, “METHODS FOR TREATING ALZHEIMER'S DISEASE” (Reviva Pharmaceuticals, Inc., priority 2015, published 2018):

Legend:
Human recombinant 5-HT1A = target: T1, Human recombinant 5-HT1A (Homo sapiens, UniProt P08908); assay: Serotonin 5HT1A radioligand binding assay; settings: [3H]-8-OH-DPAT
T1 construct: expressed in transfected cells
T1 sequence (P08908 1-422): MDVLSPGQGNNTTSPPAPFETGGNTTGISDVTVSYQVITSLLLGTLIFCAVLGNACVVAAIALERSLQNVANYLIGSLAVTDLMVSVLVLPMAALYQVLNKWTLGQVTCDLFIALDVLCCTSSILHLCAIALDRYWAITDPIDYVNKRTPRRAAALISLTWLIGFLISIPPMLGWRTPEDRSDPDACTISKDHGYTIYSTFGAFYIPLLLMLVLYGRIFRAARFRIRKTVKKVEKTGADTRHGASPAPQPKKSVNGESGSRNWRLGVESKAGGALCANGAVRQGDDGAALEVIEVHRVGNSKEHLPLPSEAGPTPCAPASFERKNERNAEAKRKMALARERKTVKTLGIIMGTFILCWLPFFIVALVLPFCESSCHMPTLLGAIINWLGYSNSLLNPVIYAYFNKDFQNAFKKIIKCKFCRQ
Excerpt: Serotonin, 5HT1A Radioligand Binding Assay
Receptor Source: Human recombinant 5-HT1A expressed mammalian cells
Radioligand: [^3H]-8-OH-DPAT (221 Ci/mmol)
Control Compound: 8-OH-DPAT

[1] = target: Human Cortex or Human recombinant 5-HT2A (Homo sapiens, UniProt P28223); assay: Serotonin 5HT2A radioligand binding assay; settings: [3H]-Ketanserin
Sequence of Human Cortex or Human recombinant 5-HT2A (P28223 whole entry): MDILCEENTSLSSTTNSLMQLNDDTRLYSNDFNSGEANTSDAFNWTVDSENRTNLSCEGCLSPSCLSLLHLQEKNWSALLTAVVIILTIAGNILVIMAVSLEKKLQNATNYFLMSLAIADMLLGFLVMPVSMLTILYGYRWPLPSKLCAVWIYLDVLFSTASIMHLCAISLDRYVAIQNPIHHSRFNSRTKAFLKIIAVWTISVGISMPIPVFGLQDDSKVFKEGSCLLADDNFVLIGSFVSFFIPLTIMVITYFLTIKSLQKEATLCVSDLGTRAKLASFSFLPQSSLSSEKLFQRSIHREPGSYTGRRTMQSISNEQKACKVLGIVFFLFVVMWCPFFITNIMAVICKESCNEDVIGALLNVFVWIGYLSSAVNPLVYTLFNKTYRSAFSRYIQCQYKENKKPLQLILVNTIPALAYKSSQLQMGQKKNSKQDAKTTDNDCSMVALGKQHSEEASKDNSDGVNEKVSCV

O=C1COc2ccc(OCCCCN3CCN(c4cccc(Cl)c4Cl)CC3)cc2N1 [Compound A, 6-(4-(4-(2,3-dichlorophenyl)piperazin-1-yl)butoxy)-2H-benzo[b][1,4]oxazin-3(-4H)-one] was tested, and the Ki (Human recombinant 5-HT1A) was 0.65 nM and the “Ki, Serotonin 5-HT2A” value [1] was 111 nM.
